Data as given in US7084122B2, “Use of glycosides of mono- and diacyglycerol as anti-inflammatory agents” (priority 2001, dated 2006).
Like-named read-outs stand apart in the source and are kept apart here.

Columns and labels:
Assay type in all cases: cell-based
[1] = tested on: human peripheral blood polymorphonuclear leukocytes; assay: Chemotaxis assay, modified Boyden chamber, towards zymosan activated serum (ZAS)
Procedure: (§1) Polymorphonuclear leukocytes (PMNS) were isolated from the peripheral blood of healthy individuals in citrated glass. The cells were separated by dextran density gradient and lymphoprep separation. The purity of PMNs was greater than 98% and the cell viability as determined by trypan blue dye exclusion was greater than 98%.
Chemotaxis assay was performed using a modified Boyden chamber technique as described in Jensen, P. and Kharazmi, A., Computer-assisted image analysis assay of human neutrophil chemotaxis in vitro. J. Immunol. Methods, 144, 43–48. 1991. The purified PMNs were pre-incubated with different dilutions of the extracted galactolipid for 30 min at 37° C. Following preincubation, the chemotaxis of the cells towards the chemotactic factor zymosan activated serum (ZAS), which contains the biologically active chemoattractant C5a, were tested. The migrated cells were counted by a computer-assisted image analysis system.

[2] = tested on: human peripheral blood polymorphonuclear leukocytes; assay: Chemiluminescence assay (oxidative burst response), stimulated with opsonized zymosan; settings: for Chemiluminescence, Millivolts: DMSO control 664
Procedure: as §1
Chemiluminescence assay was used as a measure of oxygen radical generation by activated PMNs. The method was performed as described in Kharazmi, A., Høiby, N., Doring, G., and Valerius, N. H. Pseudomonas aeruginosa exoproteases inhibit human neutrophil chemiluminescence. Infect. Immun. 44, 587, 1984. PMNs were pre-incubated with different concentrations of the extracted galactolipid and then stimulated with opsonized zymosan. The oxidative burst response of the activated cells was measured by a luminometer (1250-LKB Wallace).

[3] = tested on: polymorphonuclear leukocytes; assay: Cell viability by trypan blue dye exclusion; settings: for Percent viability: DMSO control 100
Procedure: as §1
Table 6. […] Cell viability was determined by a trypan blue dye exclusion method. The cells were incubated with trypan blue. The dead cells will take up dye and appear blue under the microscope. The results are show as percent viable cells.

`CC/C=C\C/C=C\C/C=C\CCCCCCCC(=O)OCC(CO[C@@H]1O[C@H](CO)[C@H](O)[C@H](O)[C@H]1O)OC(=O)CCCCCCC/C=C\C/C=C\C/C=C\CC` (stereo partly drawn) [GOPO, 3-β-D-galactopyranosyloxy-2-(octadeca-9Z,12Z,15Z-trienoyloxy)propanyl octadeca-9Z,12Z,15Z-trienoate] was tested, and the Cells migrated ([1]; GOPO 0.1 μg/ml, new batch (Table 4), DMSO control 42) was 39, the Cells migrated ([1]; GOPO 1 μg/ml, new batch (Table 4), DMSO control 42) was 15 and the Cells migrated ([1]; GOPO 10 μg/ml, new batch (Table 4), DMSO control 42) was 16. For the same molecule, the Cells migrated ([1]; GOPO 50 μg/ml, first batch (Table 3), DMSO control 59) was 5, the Cells migrated ([1]; GOPO 100 μg/ml, first batch (Table 3), DMSO control 59) was 8 and the Cells migrated ([1]; GOPO 100 μg/ml, new batch (Table 4), DMSO control 42) was 12. It also gave an inhibition at 0.1 µg/mL ([1]; Homo sapiens, Leukocyte, GOPO 0.1 μg/ml, new batch (Table 4), read-out: Percent inhibition) of 7%, an inhibition at 1 µg/mL ([1]; Homo sapiens, Leukocyte, GOPO 1 μg/ml, new batch (Table 4), read-out: Percent inhibition) of 64% and an inhibition at 10 µg/mL ([1]; Homo sapiens, Leukocyte, GOPO 10 μg/ml, new batch (Table 4), read-out: Percent inhibition) of 62%. For the same molecule, the inhibition at 50 µg/mL ([1]; Homo sapiens, Leukocyte, GOPO 50 μg/ml, first batch (Table 3), read-out: Percent inhibition) was 92%, the inhibition at 100 µg/mL ([1]; Homo sapiens, Leukocyte, GOPO 100 μg/ml, first batch (Table 3), read-out: Percent inhibition) was 86% and the inhibition at 100 µg/mL ([1]; Homo sapiens, Leukocyte, GOPO 100 μg/ml, new batch (Table 4), read-out: Percent inhibition) was 71%. The “Migration of human peripheral blood leukocytes towards zymosan-activated serum (result in words)” value ([1]; at fairly low concentrations) was “inhibited”, the “Chemiluminescence, Millivolts” value ([2]; GOPO 50 μg/ml) was 520 Millivolts and the “Chemiluminescence, Millivolts” value ([2]; GOPO 100 μg/ml) was 339 Millivolts. For the same molecule, the “Chemiluminescence of human peripheral blood leukocytes (result in words)” value ([2]; at fairly low concentrations) was “inhibited”, the Percent viability ([3]; GOPO 50 μg/ml) was 100% and the Percent viability ([3]; GOPO 100 μg/ml) was 99%. For the same molecule, the “Toxicity to the cells (result in words)” value ([3]; at the tested concentrations) was “does not appear to be toxic”.
